The subject of one data set is H661 NSCLC cells. Put plainly: cells. The note with it: read-out: LC50.
The subject of data set [1] is MCF-7 breast cancer cells. The note with it: read-out: LC50; MCF-7, 2 day exposure.
For data set [2], the system named is HT29 colon cancer cells. Conditions: read-out: LC50; HT29, 2 day exposure.
The next data set concerns H460 NSCLC cells. Put plainly: cells. The note with it: read-out: LC50.
The next data set deals with human endo-exonuclease. Put plainly: Endo-exonuclease nuclease activity inhibition assay. The data set is classed as biochemical. The method, then: The cultured cells were detached with trypsin-EDTA and the cell suspensions were centrifuged at 4° C. with a force of 700 g for 10 minutes. The cell pellets were washed twice with cold phosphate buffered saline (PBS). The cells were then resuspended and sonicated in 20 mM Tris-HCl, pH 7.5, containing 5 mM EDTA and 1 mM PMSF (buffer A). The resulting cell lysis suspensions were centrifuged at 4° C. at 10,000 g for 15 min. […] After washing extensively with buffer A, (i.e. until the A280 of the eluates were zero), the column was then eluted with buffer A containing 3.5 M MgCl2 to elute the endo-exonuclease. The eluted endo-exonuclease was dialyzed extensively against buffer A with at least two changes of buffer and one change of distilled water. The endo-exonuclease was then concentrated by lyophilization.
One unit of activity was defined as the amount of deoxyribonuclease that renders 1 μg of DNA acid-soluble in 30 min at 37° C. For the inhibition assay with the drugs, the drugs were added to the endo-exonuclease prior to the start of the nuclease reaction.

The test system of another data set is H520 NSCLC cells. In words: cells. Conditions: read-out: LC50.
Data set [3] concerns MCF-7 breast cancer cells. Put plainly: cells. The note with it: Homo sapiens, read-out: LC50.
For data set [4], the system named is HT29 colon cancer cells. Put plainly: cells. Conditions: Homo sapiens, read-out: LC50.
Data set [5] has as its system Lewis lung carcinoma (M47) primary tumour. On the procedure:
Lewis Lung Carcinoma Cell Line and Cell Culture: The Lewis lung carcinoma clone, M47, is a metastatic model. […] For tumour induction, cells were washed three times with phosphate buffer solution. They were then re-suspended at a dilution of 1×10^6 cells/0.1 ml. Only cells where viability was >95% were used for in vivo studies.
The mouse strain used in this study was C57BL/10. After one-week of acclimatization, cells were transplanted into the mice subcutaneously, as a suspension of tumour cells. All animals were inoculated at the same site.
To measure the effect of drugs on the primary tumour, drug solutions were administered by intraperitoneal (ip) injection every two days. Animals were subjected, on a daily basis, to general examination. Tumour growth was monitored over time. To determine the effect of drugs on tumour metastasis, the tumours were allowed to reach a size of 0.5–1.0 cm^3. Mice were randomized into various groups and the drugs were then given by ip. At the end of each experiment, animals were sacrificed and autopsied. Tumours, organs or both were removed under sterile conditions. Tumours were weighed. Organs were examined for gross pathological changes and then fixed in formalin. Lungs were fixed in Bouin's fixative and lung surface metastases were counted using a stereomicroscope.
The Lewis lung carcinoma clone, M47, with a high metastatic potential to the lung was used. […] The cell used was confirmed to be free of mycoplasma. Cells were maintained in RPMI-1640 medium supplemented with 10% fetal bovine serum and 1% penicillin-streptomycin, under 5% CO2. Cells were then propagated and stocks of the same passages were established and stored in liquid nitrogen. Oncozyme studies were done with the same stock of cells and same passage number.
For tumour induction, cells were grown to 70% confluence in complete medium and then collected using trypsin-EDTA solution [0.05% trypsin 0.53 mM EDTA-4Na in HBSS without Ca++. Mg++, and NaHCO3; Celigro No. 25–052-Li]. Cells were then centrifuged and washed three times with phosphate buffer solution [D-PBS, Ca++ and Mg++free; Cellgro No. 21–031-LV], and resuspended at a dilution of 0.1 to 1×10^6 cells/0.1 ml. Viability was examined by trypan blue staining and only cells in which the viability was >95% were used for in vivo studies.
The mouse strain used in this study is C57BL/10 from Charles River Inc. Animals were housed 5 per cage and were fed a diet of animal chow and water ad libitum. After one week acclimatization, LLC cells were transplanted subcutaneously, as a suspension of tumour cells [2−5×10^5 viable cells per 0.1 ml], in the axillary region of the right flank. All animals were inoculated at the same site. Animals were subjected, on a daily basis, to general examination. Tumour growth was monitored every second or third day using calipers. Parameters measured were: tumour measured along the longest axis (length) and the perpendicular shortest axis (width) and the relative tumour volume (in cm^3) was calculated by the formula: [length (cm)×(width cm)^2] (approximately 10–15 days), mice were randomized into one of the following groups:
The conditions for this group were identical to the group used for the experiments on metastases with the exception that the primary tumour was not removed, and the animals were maintained until the tumours reached a large size that justified animal sacrifice, or the animals manifested a discomfort that justified their sacrifice (reduced mobility, severe respiratory symptoms, etc.).
Control animals were given the same volume of saline solution [0.9% sodium chloride]. The dose of each drug was normalized to body weight per animal.
The pentamidine and cisplatinum were injected by intraperitoneal injections. Adriamycin was injected intravenously.

Each structure is given as a SMILES string. Read-outs that look alike come from different tables or passages of the source.

For `CC(=O)NCC(=O)O.CC(=O)NCC(=O)O.N=C(N)c1ccc(N=NNc2ccc(C(=N)N)cc2)cc1` [Berenil, berenil], the CC50 is greater than 4000 µM with H661 NSCLC cells (H661, 2 day exposure); 3000 µM in [1]; greater than 4000 µM with HT29 colon cancer cells [2]; greater than 4000 µM in the data set on H460 NSCLC cells (H460, 2 day exposure); greater than 4000 µM in the data set with H520 NSCLC cells (H520, 2 day exposure). Moreover, the “Percent of Inhibition of endo-exonuclease activity” value with human endo-exonuclease (2 mM) was determined as 17%.
Take `Cn1cc(NC(=O)c2cc(NC(=O)c3cc(NC=O)cn3C)cn2C)cc1C(=O)NCCC(=N)N` [Distamycin A, distamycin A]: the CC50 was greater than 2000 µM with H661 NSCLC cells (H661, 2 day exposure); 1520 µM in [1]; greater than 2000 µM in the data set on HT29 colon cancer cells [2]; greater than 2000 µM in the data set on H460 NSCLC cells (H460, 2 day exposure); greater than 2000 µM in the data set on H520 NSCLC cells (H520, 2 day exposure). The “Percent of Inhibition of endo-exonuclease activity” value in the data set on human endo-exonuclease (38 μM) is given as 30%.
Turning to `COc1cc([C@@H]2c3cc4c(cc3[C@@H](O[C@@H]3O[C@@H]5CO[C@@H](C)O[C@H]5[C@H](O)[C@H]3O)[C@H]3COC(=O)[C@H]23)OCO4)cc(OC)c1O` [Etoposide, etoposide], the CC50 was 28000 µM in the data set on H661 NSCLC cells (Homo sapiens, NCI-H661, 48 h); 15600 µM in the data set on H661 NSCLC cells (Homo sapiens, NCI-H661, 96 h); 1000 µM in data set [3] (MCF7, 48 h); 1100 µM in data set [3] (MCF7, 96 h); greater than 34000 µM with H460 NSCLC cells (Homo sapiens, NCI-H460, 48 h); greater than 34000 µM in the data set on H460 NSCLC cells (Homo sapiens, NCI-H460, 96 h). Further, the CC50 was 700 µM in the data set with HT29 colon cancer cells [4] (HT-29, 48 h); 400 µM in the data set with HT29 colon cancer cells [4] (HT-29, 96 h); greater than 34000 µM in the data set on H520 NSCLC cells (Homo sapiens, NCI-H520, 48 h); greater than 34000 µM in the data set with H520 NSCLC cells (Homo sapiens, NCI-H520, 96 h). The “Percent of Inhibition of endo-exonuclease activity” value in the data set on human endo-exonuclease (50 μM) came to 0%.
Regarding `CO[C@@]12[C@H](COC(N)=O)C3=C(C(=O)C(C)=C(N)C3=O)N1C[C@@H]1N[C@@H]12` [Mitomycin C, mitomycin C], the “Percent of Inhibition of endo-exonuclease activity” value in the data set on human endo-exonuclease (50 μM) is reported as 0%.
For `COc1cccc2c1C(=O)c1c(O)c3c(c(O)c1C2=O)C[C@@](O)(C(=O)CO)C[C@@H]3O[C@H]1C[C@H](N)[C@H](O)[C@H](C)O1` [adriamycin], in [5] (7.5 mg/Kg/iv, highest dose tested, FIG. 19), the Mortality worked out at 100%. Besides, the “Antitumour effect on primary tumour” value in data set [5] (minimal dose of 5 mg/Kg iv) is given as “potent antitumour effect”.

Values taken from patent US7115665B1, “Inhibitors of endo-exonuclease activity for treating cancer” (Onocozyme Pharma, Inc., priority 2000, dated 2006).
